From PubChem BioAssay AID330 (DTP/NCI, 2004)
Several values for one entry are separate records, joined by “and”; a condition that tells them apart may be missing. Identical values can stand only once. Toxic doses and inconclusive results are not listed.

Tested on: P388 leukemia ip, CD2F1 mice, survival T/C
Test: NCI In Vivo Anticancer Drug Screen. Data for tumor model P388 Leukemia (intraperitoneal) in CD2F1 (CDF1) mice
Conditions: endpoint: median survival time, higher = longer survival
Outline: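 Mice carrying the transplanted tumor received test compound or vehicle. Survival was recorded in each group, and the value is the treated-group measurement divided by that of the vehicle-treated control group.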

COc1cc2c(cc1OC)C(Cc1cc(OC)c(OC)cc1[N+](=O)[O-])=[N+](C)CC2 was tested, and the T/C (dose: 25.0 mg/kg/injection, schedule: Q01DX009 (ip), vehicle: other) was 98 % of control, the T/C (dose: 50.0 mg/kg/injection, schedule: Q01DX009 (ip), vehicle: other) was 96 % of control and the T/C (dose: 100.0 mg/kg/injection, schedule: Q01DX009 (ip), vehicle: other) was 102 % of control.

CCC(c1ccc(OCCS(=O)(=O)Oc2ccccc2)cc1)C(CC)c1ccc(OCCS(=O)(=O)Oc2ccccc2)cc1 (stereo not given) was tested, and the T/C (dose: 100.0 mg/kg/injection, schedule: Q04DX003 (ip), vehicle: suspension in saline) was 99 % of control, the T/C (dose: 200.0 mg/kg/injection, schedule: Q04DX003 (ip), vehicle: suspension in saline) was 98 % of control and the T/C (dose: 400.0 mg/kg/injection, schedule: Q04DX003 (ip), vehicle: suspension in saline) was 98 % of control.

With CC(=O)O[C@H]1C(=O)[C@@]2(C)[C@H]([C@H](OC(=O)c3ccccc3)[C@]3(O)C[C@H](OC(=O)[C@H](O)[C@@H](NC(=O)c4ccccc4)c4ccccc4)C(C)=C1C3(C)C)[C@]1(OC(C)=O)CO[C@@H]1C[C@@H]2O the T/C (dose: 1.1 mg/kg/injection, schedule: Q01DX005 (ip), vehicle: other) was 118 % of control, the T/C (dose: 1.1 mg/kg/injection, schedule: Q01DX005 (iv), vehicle: other) was 98 % of control and the T/C (dose: 1.1 mg/kg/injection, schedule: Q01DX009 (oral), vehicle: other) was 106 % of control. For the same compound, the T/C (dose: 1.25 mg/kg/injection, schedule: Q01DX009 (ip), vehicle: Klucel (hydroxypropylcellulose) (HPC)) was 106 % of control, the T/C (dose: 1.25 mg/kg/injection, schedule: Q01DX009 (sc), vehicle: Klucel (hydroxypropylcellulose) (HPC)) was 106 % of control and the T/C (dose: 1.7 mg/kg/injection, schedule: Q01DX005 (ip), vehicle: other) was 115 % of control. The T/C (dose: 1.7 mg/kg/injection, schedule: Q01DX005 (iv), vehicle: other) was 106 % of control, the T/C (dose: 1.7 mg/kg/injection, schedule: Q03HX024 (ip), vehicle: other) was 160 % of control and the T/C (dose: 2.5 mg/kg/injection, schedule: Q01DX005 (ip), vehicle: Klucel (hydroxypropylcellulose) (HPC)) was 124 % of control. For the same compound, the T/C (dose: 2.5 mg/kg/injection, schedule: Q01DX009 (ip), vehicle: Klucel (hydroxypropylcellulose) (HPC)) was 112 % of control, the T/C (dose: 2.5 mg/kg/injection, schedule: Q01DX009 (oral), vehicle: Klucel (hydroxypropylcellulose) (HPC)) was 100 % of control and the T/C (dose: 2.5 mg/kg/injection, schedule: Q01DX009 (sc), vehicle: Klucel (hydroxypropylcellulose) (HPC)) was 99 % of control. For the same compound, the T/C (dose: 2.6 mg/kg/injection, schedule: Q01DX001 (ip), vehicle: other) was 106 % of control, the T/C (dose: 2.6 mg/kg/injection, schedule: Q01DX001 (iv), vehicle: other) was 94 % of control and the T/C (dose: 2.6 mg/kg/injection, schedule: Q01DX005 (ip), vehicle: other) was 115 % of control. The T/C (dose: 2.6 mg/kg/injection, schedule: Q01DX005 (iv), vehicle: other) was 97 % of control, the T/C (dose: 2.6 mg/kg/injection, schedule: Q03HX024 (ip), vehicle: other) was 153 % of control and the T/C (dose: 2.6 mg/kg/injection, schedule: Q04DX003 (iv), vehicle: other) was 87 % of control. For the same compound, the T/C (dose: 3.6 mg/kg/injection, schedule: Q01DX005 (ip), vehicle: Klucel (hydroxypropylcellulose) (HPC)) was 161 % of control, the T/C (dose: 4.0 mg/kg/injection, schedule: Q01DX001 (iv), vehicle: other) was 95 % of control and the T/C (dose: 4.0 mg/kg/injection, schedule: Q01DX005 (ip), vehicle: other) was 120 % of control. For the same compound, the T/C (dose: 4.0 mg/kg/injection, schedule: Q01DX009 (oral), vehicle: other) was 96 % of control, the T/C (dose: 4.0 mg/kg/injection, schedule: Q03HX008 (ip), vehicle: other) was 156 % of control and the T/C (dose: 4.0 mg/kg/injection, schedule: Q04DX003 (ip), vehicle: other) was 120 % of control. For the same compound, the T/C (dose: 4.0 mg/kg/injection, schedule: Q04DX003 (iv), vehicle: other) was 87 % of control, the T/C (dose: 5.0 mg/kg/injection, schedule: Q01DX009 (ip), vehicle: Klucel (hydroxypropylcellulose) (HPC)) was 116 % of control and the T/C (dose: 5.0 mg/kg/injection, schedule: Q01DX009 (oral), vehicle: Klucel (hydroxypropylcellulose) (HPC)) was 99 % of control. For the same compound, the T/C (dose: 5.0 mg/kg/injection, schedule: Q01DX009 (sc), vehicle: Klucel (hydroxypropylcellulose) (HPC)) was 98 % of control, the T/C (dose: 6.0 mg/kg/injection, schedule: Q01DX001 (ip), vehicle: other) was 106 % of control and the T/C (dose: 6.0 mg/kg/injection, schedule: Q01DX005 (iv), vehicle: other) was 112 % of control. For the same compound, the T/C (dose: 6.0 mg/kg/injection, schedule: Q01DX009 (oral), vehicle: other) was 99 % of control, the T/C (dose: 6.0 mg/kg/injection, schedule: Q03HX008 (ip), vehicle: other) was 178 % of control and the T/C (dose: 6.0 mg/kg/injection, schedule: Q04DX003 (iv), vehicle: other) was 89 % of control. The T/C (dose: 9.0 mg/kg/injection, schedule: Q01DX001 (ip), vehicle: other) was 115 % of control, the T/C (dose: 9.0 mg/kg/injection, schedule: Q01DX001 (iv), vehicle: other) was 106 % of control and the T/C (dose: 9.0 mg/kg/injection, schedule: Q01DX005 (iv), vehicle: other) was 118 % of control. The T/C (dose: 9.0 mg/kg/injection, schedule: Q01DX009 (oral), vehicle: other) was 97 % of control, the T/C (dose: 10.0 mg/kg/injection, schedule: Q01DX009 (ip), vehicle: Klucel (hydroxypropylcellulose) (HPC)) was 100 % of control and 106 % of control and the T/C (dose: 10.0 mg/kg/injection, schedule: Q01DX009 (oral), vehicle: Klucel (hydroxypropylcellulose) (HPC)) was 99 % of control. The T/C (dose: 10.0 mg/kg/injection, schedule: Q01DX009 (sc), vehicle: Klucel (hydroxypropylcellulose) (HPC)) was 96 % of control, the T/C (dose: 12.5 mg/kg/injection, schedule: Q04DX003 (ip), vehicle: Klucel (hydroxypropylcellulose) (HPC)) was 150 % of control and 160 % of control and the T/C (dose: 16.7 mg/kg/injection, schedule: Q01DX005 (ip), vehicle: Klucel (hydroxypropylcellulose) (HPC)) was 96 % of control. For the same compound, the T/C (dose: 20.0 mg/kg/injection, schedule: Q01DX009 (ip), vehicle: Klucel (hydroxypropylcellulose) (HPC)) was 88 % of control, the T/C (dose: 20.0 mg/kg/injection, schedule: Q01DX009 (oral), vehicle: Klucel (hydroxypropylcellulose) (HPC)) was 98 % of control and the T/C (dose: 20.0 mg/kg/injection, schedule: Q01DX009 (sc), vehicle: Klucel (hydroxypropylcellulose) (HPC)) was 97 % of control. For the same compound, the T/C (dose: 21.6 mg/kg/injection, schedule: Q04DX003 (ip), vehicle: Klucel (hydroxypropylcellulose) (HPC)) was 157 % of control, the T/C (dose: 25.0 mg/kg/injection, schedule: Q04DX003 (ip), vehicle: Klucel (hydroxypropylcellulose) (HPC)) was 151 % of control and 155 % of control and the T/C (dose: 40.0 mg/kg/injection, schedule: Q01DX009 (oral), vehicle: Klucel (hydroxypropylcellulose) (HPC)) was 104 % of control. For the same compound, the T/C (dose: 50.0 mg/kg/injection, schedule: Q04DX003 (ip), vehicle: Klucel (hydroxypropylcellulose) (HPC)) was 124 % of control, the T/C (dose: 60.0 mg/kg/injection, schedule: Q04DX003 (ip), vehicle: Klucel (hydroxypropylcellulose) (HPC)) was 107 % of control and the T/C (dose: 80.0 mg/kg/injection, schedule: Q01DX009 (oral), vehicle: Klucel (hydroxypropylcellulose) (HPC)) was 98 % of control. For the same compound, the T/C (dose: 160.0 mg/kg/injection, schedule: Q01DX009 (oral), vehicle: Klucel (hydroxypropylcellulose) (HPC)) was 99 % of control.

For O=c1c2ncccc2cc2n1CCc1c-2[nH]c2ccccc12, the T/C (dose: 6.25 mg/kg/injection, schedule: Q01DX009 (ip), vehicle: saline with Tween-80) was 88 % of control and the T/C (dose: 12.5 mg/kg/injection, schedule: Q01DX009 (ip), vehicle: saline with Tween-80) was 86 % of control.

In the case of N#Cc1cnc(N)[nH]c1=O, the T/C (dose: 15.0 mg/kg/injection, schedule: Q01DX005 (ip), vehicle: Klucel (hydroxypropylcellulose) (HPC)) is reported as 101 % of control, the T/C (dose: 30.0 mg/kg/injection, schedule: Q01DX005 (ip), vehicle: Klucel (hydroxypropylcellulose) (HPC)) is reported as 97 % of control and the T/C (dose: 60.0 mg/kg/injection, schedule: Q01DX005 (ip), vehicle: Klucel (hydroxypropylcellulose) (HPC)) is reported as 98 % of control and 99 % of control.

With COC(OC)C1CC=CCCC1C(=O)O (stereo not given) the T/C (dose: 60.0 mg/kg/injection, schedule: Q01DX005 (ip), vehicle: saline) was 91 % of control, the T/C (dose: 120.0 mg/kg/injection, schedule: Q01DX005 (ip), vehicle: saline) was 107 % of control and the T/C (dose: 240.0 mg/kg/injection, schedule: Q01DX005 (ip), vehicle: saline) was 96 % of control.

In the case of CCOC(CNN)OCC, the T/C (dose: 100.0 mg/kg/injection, schedule: Q01DX009 (ip), vehicle: saline) is reported as 106 % of control and the T/C (dose: 200.0 mg/kg/injection, schedule: Q01DX009 (ip), vehicle: saline) is reported as 91 % of control.

For CC1(C)OC(c2ccccc2)=CC1=O, the T/C (dose: 100.0 mg/kg/injection, schedule: Q04DX002 (ip), vehicle: saline with Tween-80) was 101 % of control and the T/C (dose: 200.0 mg/kg/injection, schedule: Q04DX002 (ip), vehicle: saline with Tween-80) was 101 % of control.

O=C1c2ccccc2C(=O)c2cc3c(cc21)C1OC3C2=C1CC1C(=O)OC(=O)C1C2 (stereo not given) was tested, and the T/C (dose: 50.0 mg/kg/injection, schedule: Q01DX005 (ip), vehicle: saline with Tween-80) was 111 % of control, the T/C (dose: 100.0 mg/kg/injection, schedule: Q01DX005 (ip), vehicle: saline with Tween-80) was 93 % of control and the T/C (dose: 200.0 mg/kg/injection, schedule: Q01DX005 (ip), vehicle: saline with Tween-80) was 94 % of control.

In the case of S=c1sscc1-c1ccc2ccccc2c1, the T/C (dose: 200.0 mg/kg/injection, schedule: Q04DX003 (ip), vehicle: saline with Tween-80) is reported as 90 % of control and the T/C (dose: 400.0 mg/kg/injection, schedule: Q04DX003 (ip), vehicle: saline with Tween-80) is reported as 97 % of control.
